According to ChEMBL document CHEMBL1201861, “Genomics of Drug Sensitity in Cancer screening data, Wellcome Trust Sanger Institute”:

Experiments:
Assay in all cases: cells
Format in all cases: functional, cell-based, Homo sapiens
[1] = tested on: SW1710; conditions: Homo sapiens, SW1710;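 note: growth inhibition of SW1710 cells, determined with a cell viability assay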
Description: SANGER: Inhibition of human SW1710 cell growth in a cell viability assay.

[2] = tested on: HPAF-II; conditions: Homo sapiens, HPAF-II;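 note: growth inhibition of HPAF-II cells, read out with a cell viability assay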
Description: SANGER: Inhibition of human HPAF-II cell growth in a cell viability assay.

[3] = tested on: NCI-H2087; conditions: Homo sapiens, NCI-H2087;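 note: growth inhibition determined with a cell viability readout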
Description: SANGER: Inhibition of human NCI-H2087 cell growth in a cell viability assay.

[4] = tested on: KP-N-YN; conditions: Homo sapiens, KP-N-YN;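 note: growth inhibition of KP-N-YN cells, read out with a cell viability assay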
Description: SANGER: Inhibition of human KP-N-YN cell growth in a cell viability assay.

[5] = tested on: NCI-H889; conditions: Homo sapiens, NCI-H889;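 note: cell growth inhibition of the cell line, read out with a viability assay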
Description: SANGER: Inhibition of human NCI-H889 cell growth in a cell viability assay.

[6] = tested on: MHH-ES-1; conditions: Homo sapiens, MHH-ES-1;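 note: cell growth inhibition measured by a cell viability assay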
Description: SANGER: Inhibition of human MHH-ES-1 cell growth in a cell viability assay.

[7] = tested on: LU-165; conditions: Homo sapiens, LU-165
Description: SANGER: Inhibition of human LU-165 cell growth in a cell viability assay.

[8] = tested on: CAL-27; conditions: Homo sapiens, CAL-27;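 note: Viability-based readout, IC50 reflecting inhibition of CAL-27 cell growth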
Description: SANGER: Inhibition of human CAL-27 cell growth in a cell viability assay.

[9] = tested on: KYSE-410; conditions: Homo sapiens, KYSE-410;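 note: growth inhibition of KYSE-410 cells, measured through a cell viability readout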
Description: SANGER: Inhibition of human KYSE-410 cell growth in a cell viability assay.

[10] = tested on: MKN-28; conditions: Homo sapiens, MKN-28;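 note: cell viability assay read-out, IC50 reflects suppression of growth of human MKN-28 cells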
Description: SANGER: Inhibition of human MKN28 cell growth in a cell viability assay.

[11] = tested on: RO82-W-1; conditions: Homo sapiens, RO82-W-1;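 note: growth inhibition of human RO82-W-1 cells, measured with a cell viability assay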
Description: SANGER: Inhibition of human RO82-W-1 cell growth in a cell viability assay.

[12] = tested on: Capan-2; conditions: Homo sapiens, Capan-2;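 note: Capan-2 cell growth inhibition, read out with a viability assay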
Description: SANGER: Inhibition of human Capan-2 cell growth in a cell viability assay.

[13] = tested on: NCI-H1793; conditions: Homo sapiens, NCI-H1793;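 note: cell growth inhibition, read out by a cell viability assay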
Description: SANGER: Inhibition of human NCI-H1793 cell growth in a cell viability assay.

[14] = tested on: T47D; conditions: Homo sapiens, T47D;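 note: growth inhibition of human T47D cells, measured with a cell viability assay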
Description: SANGER: Inhibition of human T47D cell growth in a cell viability assay.

[15] = tested on: Hs-578T; conditions: Homo sapiens, Hs-578T
Description: SANGER: Inhibition of human Hs-578-T cell growth in a cell viability assay.

[16] = tested on: NCI-H2081; conditions: Homo sapiens, NCI-H2081;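 note: growth inhibition of human NCI-H2081 cells, read out with a cell viability assay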
Description: SANGER: Inhibition of human NCI-H2081 cell growth in a cell viability assay.

[17] = tested on: CHL-1; conditions: Homo sapiens, CHL-1;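 note: cell growth inhibition, read out with a cell viability assay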
Description: SANGER: Inhibition of human CHL-1 cell growth in a cell viability assay.

[18] = tested on: NCI-H2196; conditions: Homo sapiens, NCI-H2196;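 note: cell viability assay used as the readout of growth inhibition in NCI-H2196 cells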
Description: SANGER: Inhibition of human NCI-H2196 cell growth in a cell viability assay.

[19] = tested on: HCT-15; conditions: Homo sapiens, HCT-15;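 note: cell viability readout, IC50 reflecting suppression of HCT-15 cell growth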
Description: SANGER: Inhibition of human HCT-15 cell growth in a cell viability assay.

[20] = tested on: P12-Ichikawa; conditions: Homo sapiens, P12-Ichikawa
[21] = tested on: NB1; conditions: Homo sapiens, NB1;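 note: reduction of NB1 cell proliferation, read out with a viability assay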
Description: SANGER: Inhibition of human NB1 cell growth in a cell viability assay.

[22] = tested on: SK-MEL-24; conditions: Homo sapiens, SK-MEL-24;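 note: growth inhibition read out by a cell viability assay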
Description: SANGER: Inhibition of human SK-MEL-24 cell growth in a cell viability assay.

[23] = tested on: CAMA-1; conditions: Homo sapiens, CAMA-1;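 note: growth inhibition of CAMA-1 cells, read out with a cell viability assay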
Description: SANGER: Inhibition of human CAMA-1 cell growth in a cell viability assay.

[24] = tested on: NCI-H650; conditions: Homo sapiens, NCI-H650;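 note: growth inhibition of NCI-H650 cells, read out by a viability assay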
Description: SANGER: Inhibition of human NCI-H650 cell growth in a cell viability assay.

[25] = tested on: SNU-16; conditions: Homo sapiens, SNU-16;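 note: growth inhibition of human SNU-16 cells, determined with a cell viability readout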
Description: SANGER: Inhibition of human NCI-SNU-16 cell growth in a cell viability assay.

[26] = tested on: NCI-H1703; conditions: Homo sapiens, NCI-H1703;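 note: growth inhibition of NCI-H1703 cells, read out via a cell viability assay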
Description: SANGER: Inhibition of human NCI-H1703 cell growth in a cell viability assay.

[27] = tested on: PC-3; conditions: Homo sapiens, PC-3;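 note: cell viability assay measuring growth inhibition of PC-3 cells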
Description: SANGER: Inhibition of human PC-3 cell growth in a cell viability assay.

[28] = tested on: SAS; conditions: Homo sapiens, SAS;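 note: growth inhibition of SAS cells, read out with a cell viability assay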
Description: SANGER: Inhibition of human SAS cell growth in a cell viability assay.

[29] = tested on: LU-99A; conditions: Homo sapiens, LU-99A;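 note: growth inhibition of LU-99A cells, read out with a cell viability assay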
Description: SANGER: Inhibition of human LU-99A cell growth in a cell viability assay.

[30] = tested on: BC-3; conditions: Homo sapiens, BC-3;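 note: cell viability assay measuring growth inhibition of human BC-3 cells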
Description: SANGER: Inhibition of human BC-3 cell growth in a cell viability assay.

[31] = tested on: HLE; conditions: Homo sapiens, HLE;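 note: growth inhibition of human HLE cells, read out by a cell viability assay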
Description: SANGER: Inhibition of human HLE cell growth in a cell viability assay.

[32] = tested on: GP5d; conditions: Homo sapiens, GP5d;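 note: growth inhibition of human GP5d cells, read out with a cell viability assay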
Description: SANGER: Inhibition of human GP5d cell growth in a cell viability assay.

[33] = tested on: LN-405; conditions: Homo sapiens, LN-405
Description: SANGER: Inhibition of human LN-405 cell growth in a cell viability assay.

[34] = tested on: KMS-12-PE; conditions: Homo sapiens, KMS-12-PE;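 note: growth inhibition of human KMS-12-PE cells, measured with a cell viability assay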
Description: SANGER: Inhibition of human KMS-12-PE cell growth in a cell viability assay.

[35] = tested on: NCI-H2170; conditions: Homo sapiens, NCI-H2170;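 note: cell viability assay measuring growth inhibition of human NCI-H2170 cancer cells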
Description: SANGER: Inhibition of human NCI-H2170 cell growth in a cell viability assay.

[36] = tested on: HN; conditions: Homo sapiens, HN
Description: SANGER: Inhibition of human HN cell growth in a cell viability assay.

[37] = tested on: SJRH30; conditions: Homo sapiens, SJRH30;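 note: growth inhibition of human SJRH30 cells, read out with a cell viability assay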
Description: SANGER: Inhibition of human SJRH30 cell growth in a cell viability assay.

[38] = tested on: EHEB; conditions: Homo sapiens, EHEB;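 note: growth inhibition of human EHEB cells, read out with a cell viability assay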
Description: SANGER: Inhibition of human EHEB cell growth in a cell viability assay.

[39] = tested on: HCC1954; conditions: Homo sapiens, HCC1954;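 note: growth inhibition of human HCC1954 cells, read out with a cell viability assay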
Description: SANGER: Inhibition of human HCC1954 cell growth in a cell viability assay.

[40] = tested on: SAOS-2; conditions: Homo sapiens, SAOS-2;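 note: growth inhibition of human Saos-2 cells determined by a cell viability assay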
Description: SANGER: Inhibition of human Saos-2 cell growth in a cell viability assay.

[41] = tested on: HGC-27; conditions: Homo sapiens, HGC-27;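 note: growth inhibition of human HGC-27 cells, read out in a cell viability assay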
Description: SANGER: Inhibition of human HGC-27 cell growth in a cell viability assay.

[42] = tested on: HOS; conditions: Homo sapiens, HOS;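 note: growth inhibition of human HOS cells, read out with a cell viability assay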
Description: SANGER: Inhibition of human HOS cell growth in a cell viability assay.

[43] = tested on: SNU-449; conditions: Homo sapiens, SNU-449
Description: SANGER: Inhibition of human SNU-449 cell growth in a cell viability assay.

[44] = tested on: SIG-M5; conditions: Homo sapiens, SIG-M5;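 note: cell viability assay read-out, measuring how strongly growth of cultured human SIG-M5 cells is inhibited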
Description: SANGER: Inhibition of human SIG-M5 cell growth in a cell viability assay.

Structure (SMILES): CCC/C=C/C=C/C(=O)O[C@H]1/C(=C/C(=O)OC)C[C@H]2C[C@H]([C@@H](C)O)OC(=O)C[C@H](O)C[C@@H]3C[C@H](OC(C)=O)C(C)(C)[C@](O)(C[C@@H]4C/C(=C/C(=O)OC)C[C@H](/C=C/C(C)(C)[C@]1(O)O2)O4)O3 [BRYOSTATIN 1]
- IC50 [1]: > 0.008 µM
- IC50 [2]: > 0.008 µM
- IC50 [3]: > 0.008 µM
- IC50 [4]: > 0.008 µM
- IC50 [5]: > 0.008 µM
- IC50 [6]: > 0.008 µM
- IC50 [7]: > 0.008 µM
- IC50 [8]: > 0.008 µM
- IC50 [9]: > 0.008 µM
- IC50 [10]: > 0.008 µM
- IC50 [11]: > 0.008 µM
- IC50 [12]: > 0.008 µM
- IC50 [13]: > 0.008 µM
- IC50 [14]: > 0.008 µM
- IC50 [15]: > 0.008 µM
- IC50 [16]: > 0.008 µM
- IC50 [17]: > 0.008 µM
- IC50 [18]: > 0.008 µM
- IC50 [19]: > 0.008 µM
- IC50 [20]: > 0.008 µM
- IC50 [21]: > 0.008 µM
- IC50 [22]: > 0.008 µM
- IC50 [23]: > 0.008 µM
- IC50 [24]: > 0.008 µM
- IC50 [25]: > 0.008 µM
- IC50 [26]: > 0.008 µM
- IC50 [27]: > 0.008 µM
- IC50 [28]: > 0.008 µM
- IC50 [29]: > 0.008 µM
- IC50 [30]: > 0.008 µM
- IC50 [31]: > 0.008 µM
- IC50 [32]: > 0.008 µM
- IC50 [33]: > 0.008 µM
- IC50 [34]: > 0.008 µM
- IC50 [35]: > 0.008 µM
- IC50 [36]: > 0.008 µM
- IC50 [37]: > 0.008 µM
- IC50 [38]: > 0.008 µM
- IC50 [39]: > 0.008 µM
- IC50 [40]: > 0.008 µM
- IC50 [41]: > 0.008 µM
- IC50 [42]: > 0.008 µM
- IC50 [43]: > 0.008 µM
- IC50 [44]: 0.00156 µM

Structure (SMILES): Oc1ccc2ccccc2c1SSc1c(O)ccc2ccccc12
- IC50 [1]: 1.18 µM
- IC50 [2]: > 32 µM
- IC50 [3]: > 32 µM
- IC50 [4]: > 32 µM
- IC50 [5]: > 32 µM
- IC50 [6]: > 32 µM
- IC50 [7]: > 32 µM
- IC50 [8]: > 32 µM
- IC50 [9]: > 32 µM
- IC50 [10]: 17.3 µM
- IC50 [11]: > 32 µM
- IC50 [12]: > 32 µM
- IC50 [13]: > 32 µM
- IC50 [14]: > 32 µM
- IC50 [15]: > 32 µM
- IC50 [16]: > 32 µM
- IC50 [17]: 11.9 µM
- IC50 [18]: > 32 µM
- IC50 [19]: > 32 µM
- IC50 [20]: > 32 µM
- IC50 [21]: 21.9 µM
- IC50 [22]: > 32 µM
- IC50 [23]: > 32 µM
- IC50 [24]: > 32 µM
- IC50 [25]: > 32 µM
- IC50 [26]: > 32 µM
- IC50 [27]: > 32 µM
- IC50 [28]: > 32 µM
- IC50 [29]: > 32 µM
- IC50 [30]: > 32 µM
- IC50 [31]: 4.52 µM
- IC50 [32]: > 32 µM
- IC50 [33]: > 32 µM
- IC50 [34]: > 32 µM
- IC50 [35]: > 32 µM
- IC50 [36]: > 32 µM
- IC50 [37]: > 32 µM
- IC50 [38]: 8.56 µM
- IC50 [39]: > 32 µM
- IC50 [40]: > 32 µM
- IC50 [41]: 17.2 µM
- IC50 [42]: 4.5 µM
- IC50 [43]: > 32 µM
- IC50 [44]: 2.1 µM

Structure (SMILES): Cc1cc([N+](=O)[O-])ccc1NS(=O)(=O)c1cc(Cl)ccc1Cl
- IC50 [1]: 2.33 µM
- IC50 [2]: 10.7 µM
- IC50 [3]: 2.16 µM
- IC50 [4]: 10.2 µM
- IC50 [5]: > 32 µM
- IC50 [6]: 6.43 µM
- IC50 [7]: > 32 µM
- IC50 [8]: 3.16 µM
- IC50 [9]: 5.83 µM
- IC50 [10]: 4.37 µM
- IC50 [11]: > 32 µM
- IC50 [12]: 8.17 µM
- IC50 [13]: > 32 µM
- IC50 [14]: 26.9 µM
- IC50 [15]: 11.5 µM
- IC50 [16]: > 32 µM
- IC50 [17]: 2.18 µM
- IC50 [18]: > 32 µM
- IC50 [19]: 6.87 µM
- IC50 [20]: 13.8 µM
- IC50 [21]: 8.38 µM
- IC50 [22]: 6.27 µM
- IC50 [23]: 0.911 µM
- IC50 [24]: 2.78 µM
- IC50 [25]: > 32 µM
- IC50 [26]: 3.29 µM
- IC50 [27]: 8.12 µM
- IC50 [28]: > 32 µM
- IC50 [29]: 1.24 µM
- IC50 [30]: 8.38 µM
- IC50 [31]: 1.99 µM
- IC50 [32]: 1.14 µM
- IC50 [33]: 11.9 µM
- IC50 [34]: > 32 µM
- IC50 [35]: 1.44 µM
- IC50 [36]: > 32 µM
- IC50 [37]: 2.07 µM
- IC50 [38]: 9.79 µM
- IC50 [39]: 3.62 µM
- IC50 [40]: 6.94 µM
- IC50 [41]: 4.03 µM
- IC50 [42]: 2.53 µM
- IC50 [43]: 5.94 µM
- IC50 [44]: 3.36 µM
